In one data set the test system is iBMEC barrier. In words: TEER measurement of iBMEC barrier function on TEER chips under flow. It counts as cell-based, human. As to conditions: exposure of chips under flow to TNFa, FIG. 14A. The method, then: Cells were plated on tall channel PDMS chips equipped with incorporated gold electrodes on each channel (see FIG. 13A). Post seeding of BMECs, transendothelial electrical resistance was measured by connecting the electrodes to an EVOM2 voltohmmeter (see FIG. 13B). […] The “damaged” chip was a failure due to the TEER-Chips being a prototype.
Higher TEER values generally indicate a tighter barrier, which is typically desirable for a blood-brain barrier.

The test system of data set [1] is BMECs seeded on a microfluidic device. Put plainly: Paracellular permeability assay with Dextran-FITC on chip. It counts as cell-based, human. As to conditions: TNFa exposure, FIG. 14B. The method, then: Albumin or Dextran conjugated to a fluorescent probe (e.g., FITC or TRITC) are frequently used to monitor changes in leakage, and thus barrier function. In this case, Dextran-FITC, a green fluorescent molecule of 4 KDa, or sodium fluorescein (a 0.3 KDa molecule), was added to the bottom (“blood side”) channel. Paracellular permeability was calculated by measuring the permeability of the fluorescent molecule on the Top (“brain side”) channel. […] FIG. 14B involves TNF-alpha exposure, but the readout is membrane permeability as measured by Dextran-FITC.

Another data set concerns neurons seeded in chip. In kind it is cell-based, human.
In data set [2] the test system is cell monolayers with tight junctions. As to conditions: passive paracellular diffusion only; cited from earlier work.

This is an account of results in patent US11174462B2, “Microfluidic model of the blood brain barrier” (EMULATE, Inc., priority 2015, dated 2021).

Entries after “also recorded” stand apart in the source; their conditions may differ.

With TNFa, the “effect on iBMEC barrier function (TEER)” value in the data set on iBMEC barrier was “weakening of barrier function; also recorded: decrease in barrier function and TEER”. In addition, the “effect on permeability to dextran-FITC through the semi-porous membrane” value in data set [1] was “increase in permeability”.

Regarding `NC1=N[C@H](O)[C@H]2[C@H]3O[C@]4(O)O[C@@H]([C@@H](O)[C@@]2(N1)[C@@H]4O)[C@]3(O)CO` [TTX, tetrodotoxin], in the data set with neurons seeded in chip, the “effect on neuronal calcium flux activity” value is “ablates this activity”.

As to Lucifer Yellow, the “permeability across cell monolayers (in words)” value in data set [2] is on record as “low permeability”.
